# Reference: ChEMBL document CHEMBL1153020, “Smart conferring of nuclease resistance to DNA by 3'-end protection using 2',4'-bridged nucleoside-5'-triphosphates” (Bioorg Med Chem Lett, 2009)
# Assay: Stability assessed as nuclease resistance; call rule not given here
# Type: ADME
structure (smiles),measurement,value
Cc1cn([C@@H]2O[C@@]3(COP(=O)(O)OP(=O)(O)OP(=O)(O)O[C@H]4C[C@H](n5cc(C)c(=O)[nH]c5=O)O[C@@H]4COP(=O)(O)O[C@H]4C[C@H](n5cnc6c(=O)[nH]c(N)nc65)O[C@@H]4COP(=O)(O)O[C@H]4C[C@H](n5cnc6c(N)ncnc65)O[C@@H]4COP(=O)(O)O[C@H]4C[C@H](n5cnc6c(=O)[nH]c(N)nc65)O[C@@H]4COP(=O)(O)O[C@H]4C[C@H](n5cc(C)c(=O)[nH]c5=O)O[C@@H]4COP(=O)(O)O[C@H]4[C@@H](O)[C@H](n5cnc6c(=O)[nH]c(N)nc65)O[C@@H]4COP(=O)(O)O[C@H]4[C@@H](O)[C@H](n5cnc6c(N)ncnc65)O[C@@H]4COP(=O)(O)O[C@H]4C[C@H](n5cnc6c(=O)[nH]c(N)nc65)O[C@@H]4COP(=O)(O)O[C@H]4C[C@H](n5cc(C)c(=O)[nH]c5=O)O[C@@H]4COP(=O)(O)O[C@H]4C[C@H](n5cnc6c(N)ncnc65)O[C@@H]4COP(=O)(O)O[C@H]4C[C@H](n5cnc6c(N)ncnc65)O[C@@H]4COP(=O)(O)O[C@H]4C[C@H](n5cnc6c(=O)[nH]c(N)nc65)O[C@@H]4COP(=O)(O)O[C@H]4C[C@H](n5cc(C)c(=O)[nH]c5=O)O[C@@H]4COP(=O)(O)O[C@H]4C[C@H](n5cnc6c(=O)[nH]c(N)nc65)O[C@@H]4COP(=O)(O)O[C@H]4C[C@H](n5cnc6c(N)ncnc65)O[C@@H]4COP(=O)(O)O[C@H]4C[C@H](n5cnc6c(=O)[nH]c(N)nc65)O[C@@H]4COP(=O)(O)O[C@H]4C[C@H](n5cc(C)c(=O)[nH]c5=O)O[C@@H]4COP(=O)(O)O[C@H]4C[C@H](n5cnc6c(=O)[nH]c(N)nc65)O[C@@H]4COP(=O)(O)O[C@H]4C[C@H](n5cnc6c(N)ncnc65)O[C@@H]4COP(=O)(O)O[C@H]4C[C@H](n5cnc6c(=O)[nH]c(N)nc65)O[C@@H]4COP(=O)(O)O[C@H]4C[C@H](n5cc(C)c(=O)[nH]c5=O)O[C@@H]4COP(=O)(O)O[C@H]4C[C@H](n5cc(C)c(=O)[nH]c5=O)O[C@@H]4COP(=O)(O)O[C@H]4C[C@H](n5cnc6c(=O)[nH]c(N)nc65)O[C@@H]4COP(=O)(O)O[C@H]4C[C@H](n5ccc(N)nc5=O)O[C@@H]4COP(=O)(O)O[C@H]4C[C@H](n5cnc6c(=O)[nH]c(N)nc65)O[C@@H]4COP(=O)(O)O[C@H]4C[C@H](n5cnc6c(=O)[nH]c(N)nc65)O[C@@H]4CO)COC2[C@@H]3O)c(=O)[nH]c1=O,Activity,Active
Cc1cn([C@@H]2O[C@@]3(COP(=O)(O)OP(=O)(O)OP(=O)(O)O[C@H]4C[C@H](n5cc(C)c(=O)[nH]c5=O)O[C@@H]4COP(=O)(O)O[C@H]4C[C@H](n5cnc6c(=O)[nH]c(N)nc65)O[C@@H]4COP(=O)(O)O[C@H]4C[C@H](n5cnc6c(N)ncnc65)O[C@@H]4COP(=O)(O)O[C@H]4C[C@H](n5cnc6c(=O)[nH]c(N)nc65)O[C@@H]4COP(=O)(O)O[C@H]4C[C@H](n5cc(C)c(=O)[nH]c5=O)O[C@@H]4COP(=O)(O)O[C@H]4[C@@H](O)[C@H](n5cnc6c(=O)[nH]c(N)nc65)O[C@@H]4COP(=O)(O)O[C@H]4[C@@H](O)[C@H](n5cnc6c(N)ncnc65)O[C@@H]4COP(=O)(O)O[C@H]4C[C@H](n5cnc6c(=O)[nH]c(N)nc65)O[C@@H]4COP(=O)(O)O[C@H]4C[C@H](n5cc(C)c(=O)[nH]c5=O)O[C@@H]4COP(=O)(O)O[C@H]4C[C@H](n5cnc6c(N)ncnc65)O[C@@H]4COP(=O)(O)O[C@H]4C[C@H](n5cnc6c(N)ncnc65)O[C@@H]4COP(=O)(O)O[C@H]4C[C@H](n5cnc6c(=O)[nH]c(N)nc65)O[C@@H]4COP(=O)(O)O[C@H]4C[C@H](n5cc(C)c(=O)[nH]c5=O)O[C@@H]4COP(=O)(O)O[C@H]4C[C@H](n5cnc6c(=O)[nH]c(N)nc65)O[C@@H]4COP(=O)(O)O[C@H]4C[C@H](n5cnc6c(N)ncnc65)O[C@@H]4COP(=O)(O)O[C@H]4C[C@H](n5cnc6c(=O)[nH]c(N)nc65)O[C@@H]4COP(=O)(O)O[C@H]4C[C@H](n5cc(C)c(=O)[nH]c5=O)O[C@@H]4COP(=O)(O)O[C@H]4C[C@H](n5cnc6c(=O)[nH]c(N)nc65)O[C@@H]4COP(=O)(O)O[C@H]4C[C@H](n5cnc6c(N)ncnc65)O[C@@H]4COP(=O)(O)O[C@H]4C[C@H](n5cnc6c(=O)[nH]c(N)nc65)O[C@@H]4COP(=O)(O)O[C@H]4C[C@H](n5cc(C)c(=O)[nH]c5=O)O[C@@H]4COP(=O)(O)O[C@H]4C[C@H](n5cc(C)c(=O)[nH]c5=O)O[C@@H]4COP(=O)(O)O[C@H]4C[C@H](n5cnc6c(=O)[nH]c(N)nc65)O[C@@H]4COP(=O)(O)O[C@H]4C[C@H](n5ccc(N)nc5=O)O[C@@H]4COP(=O)(O)O[C@H]4C[C@H](n5cnc6c(=O)[nH]c(N)nc65)O[C@@H]4COP(=O)(O)O[C@H]4C[C@H](n5cnc6c(=O)[nH]c(N)nc65)O[C@@H]4CO)COCOC2[C@@H]3O)c(=O)[nH]c1=O,Activity,Active
Cc1cn([C@@H]2O[C@@]3(COP(=O)(O)OP(=O)(O)OP(=O)(O)O[C@H]4C[C@H](n5cc(C)c(=O)[nH]c5=O)O[C@@H]4COP(=O)(O)O[C@H]4C[C@H](n5cnc6c(=O)[nH]c(N)nc65)O[C@@H]4COP(=O)(O)O[C@H]4C[C@H](n5cnc6c(N)ncnc65)O[C@@H]4COP(=O)(O)O[C@H]4C[C@H](n5cnc6c(=O)[nH]c(N)nc65)O[C@@H]4COP(=O)(O)O[C@H]4C[C@H](n5cc(C)c(=O)[nH]c5=O)O[C@@H]4COP(=O)(O)O[C@H]4[C@@H](O)[C@H](n5cnc6c(=O)[nH]c(N)nc65)O[C@@H]4COP(=O)(O)O[C@H]4[C@@H](O)[C@H](n5cnc6c(N)ncnc65)O[C@@H]4COP(=O)(O)O[C@H]4C[C@H](n5cnc6c(=O)[nH]c(N)nc65)O[C@@H]4COP(=O)(O)O[C@H]4C[C@H](n5cc(C)c(=O)[nH]c5=O)O[C@@H]4COP(=O)(O)O[C@H]4C[C@H](n5cnc6c(N)ncnc65)O[C@@H]4COP(=O)(O)O[C@H]4C[C@H](n5cnc6c(N)ncnc65)O[C@@H]4COP(=O)(O)O[C@H]4C[C@H](n5cnc6c(=O)[nH]c(N)nc65)O[C@@H]4COP(=O)(O)O[C@H]4C[C@H](n5cc(C)c(=O)[nH]c5=O)O[C@@H]4COP(=O)(O)O[C@H]4C[C@H](n5cnc6c(=O)[nH]c(N)nc65)O[C@@H]4COP(=O)(O)O[C@H]4C[C@H](n5cnc6c(N)ncnc65)O[C@@H]4COP(=O)(O)O[C@H]4C[C@H](n5cnc6c(=O)[nH]c(N)nc65)O[C@@H]4COP(=O)(O)O[C@H]4C[C@H](n5cc(C)c(=O)[nH]c5=O)O[C@@H]4COP(=O)(O)O[C@H]4C[C@H](n5cnc6c(=O)[nH]c(N)nc65)O[C@@H]4COP(=O)(O)O[C@H]4C[C@H](n5cnc6c(N)ncnc65)O[C@@H]4COP(=O)(O)O[C@H]4C[C@H](n5cnc6c(=O)[nH]c(N)nc65)O[C@@H]4COP(=O)(O)O[C@H]4C[C@H](n5cc(C)c(=O)[nH]c5=O)O[C@@H]4COP(=O)(O)O[C@H]4C[C@H](n5cc(C)c(=O)[nH]c5=O)O[C@@H]4COP(=O)(O)O[C@H]4C[C@H](n5cnc6c(=O)[nH]c(N)nc65)O[C@@H]4COP(=O)(O)O[C@H]4C[C@H](n5ccc(N)nc5=O)O[C@@H]4COP(=O)(O)O[C@H]4C[C@H](n5cnc6c(=O)[nH]c(N)nc65)O[C@@H]4COP(=O)(O)O[C@H]4C[C@H](n5cnc6c(=O)[nH]c(N)nc65)O[C@@H]4CO)NCOC2[C@@H]3O)c(=O)[nH]c1=O,Activity,Active
Cc1cn([C@H]2C[C@H](OP(=O)(O)OC[C@H]3O[C@@H](n4cnc5c(=O)[nH]c(N)nc54)C[C@@H]3OP(=O)(O)OC[C@H]3O[C@@H](n4cnc5c(N)ncnc54)C[C@@H]3OP(=O)(O)OC[C@H]3O[C@@H](n4cnc5c(=O)[nH]c(N)nc54)C[C@@H]3OP(=O)(O)OC[C@H]3O[C@@H](n4cc(C)c(=O)[nH]c4=O)C[C@@H]3O)[C@@H](COP(=O)(O)O[C@H]3[C@@H](O)[C@H](n4cnc5c(=O)[nH]c(N)nc54)O[C@@H]3COP(=O)(O)O[C@H]3[C@@H](O)[C@H](n4cnc5c(N)ncnc54)O[C@@H]3COP(=O)(O)O[C@H]3C[C@H](n4cnc5c(=O)[nH]c(N)nc54)O[C@@H]3COP(=O)(O)O[C@H]3C[C@H](n4cc(C)c(=O)[nH]c4=O)O[C@@H]3COP(=O)(O)O[C@H]3C[C@H](n4cnc5c(N)ncnc54)O[C@@H]3COP(=O)(O)O[C@H]3C[C@H](n4cnc5c(N)ncnc54)O[C@@H]3COP(=O)(O)O[C@H]3C[C@H](n4cnc5c(=O)[nH]c(N)nc54)O[C@@H]3COP(=O)(O)O[C@H]3C[C@H](n4cc(C)c(=O)[nH]c4=O)O[C@@H]3COP(=O)(O)O[C@H]3C[C@H](n4cnc5c(=O)[nH]c(N)nc54)O[C@@H]3COP(=O)(O)O[C@H]3C[C@H](n4cnc5c(N)ncnc54)O[C@@H]3COP(=O)(O)O[C@H]3C[C@H](n4cnc5c(=O)[nH]c(N)nc54)O[C@@H]3COP(=O)(O)O[C@H]3C[C@H](n4cc(C)c(=O)[nH]c4=O)O[C@@H]3COP(=O)(O)O[C@H]3C[C@H](n4cnc5c(=O)[nH]c(N)nc54)O[C@@H]3COP(=O)(O)O[C@H]3C[C@H](n4cnc5c(N)ncnc54)O[C@@H]3COP(=O)(O)O[C@H]3C[C@H](n4cnc5c(=O)[nH]c(N)nc54)O[C@@H]3COP(=O)(O)O[C@H]3C[C@H](n4cc(C)c(=O)[nH]c4=O)O[C@@H]3COP(=O)(O)O[C@H]3C[C@H](n4cc(C)c(=O)[nH]c4=O)O[C@@H]3COP(=O)(O)O[C@H]3C[C@H](n4cnc5c(=O)[nH]c(N)nc54)O[C@@H]3COP(=O)(O)O[C@H]3C[C@H](n4ccc(N)nc4=O)O[C@@H]3COP(=O)(O)O[C@H]3C[C@H](n4cnc5c(=O)[nH]c(N)nc54)O[C@@H]3COP(=O)(O)O[C@H]3C[C@H](n4cnc5c(=O)[nH]c(N)nc54)O[C@@H]3CO)O2)c(=O)[nH]c1=O,Activity,Active
